The experiment relates to POMC. Kind of experiment: Gene modulation in normal human epidermal melanocytes (NHEM), RT-qPCR PCR array of mRNA expression. It is filed as cell-based. The note with it: Melanocyte, 72 h. On the procedure:
Normal human epidermal melanocytes were cultivated for 24 hours. […] Cells were cultivated for additional 72 hours. All experimental conditions were performed in triplicate.
At the end of the cultivation, the cells were harvested and washed with phosphate buffered saline (PBS) solution and immediately frozen at -80 °C. The expression of selected markers was analyzed using RT-qPCR method on mRNA extracted from cells layer for each treatment condition. The differential expression analysis was performed by PCR arrays of the screening format "mQPA H-Melanocyte-64", which focuses on 64 genes selected for their importance in pigmentation and melanocyte biology.
Total RNA was extracted from each sample using TRI-Reagent®. The amount and quality of the RNA was evaluated using a lab-on-a-chip Bioanalyzer (Agilent technologies). Potential contaminants traces of DNA were removed […] The incorporation of fluorescence in amplified DNA was measured continuously during the PCR cycles. […] The value selected for RE calculations is the "output point" (Ct) of the fluorescence curve. For a given marker, the highest is the cycle number; the lowest, is the mRNA quantity. The RE value is expressed in arbitrary units (AU) according to the equation: (((1)/(2)))^NC x 10^6 Where NC is the number of cycles. [formula]

Like-named read-outs stand apart in the source and are kept apart here.

In the case of `Oc1ccc(C=Cc2cc(O)cc(O)c2)cc1` [Resveratrol, 3,4',5 trihydroxystilbene], the activation at 5 µg/mL (read-out: POMC expression ratio compared to control) was 5% and the activation at 5 µg/mL (read-out: modulation of expression of the gene POMC when compared to untreated cells) is 5%.

These data come from patent EP2522329A1, “Use of resveratrol and arbutin” (DSM IP Assets B.V., priority 2011, dated 2012).
